Test results reported in ChEMBL document CHEMBL4325841, “5-(4-Hydroxyphenyl)-3H-1,2-dithiole-3-thione-based fibrates as potential hypolipidemic and hepatoprotective agents” (2018).
Activity calls are given as the source filed them. The calls are words filed in the database; no cut-off is given here.

Tests used:
[1] = test system: Mus musculus; experiment: Antihyperlipidemic activity in Triton WR-1339-induced hyperlipidemic mouse model assessed as decrease in total cholesterol level at 13 mg/kg, po for 7 days and co-treated with Triton WR-1339 on day 6; format: functional, organism-based
[2] = test system: Mus musculus; experiment: Antihyperlipidemic activity in Triton WR-1339-induced hyperlipidemic mouse model assessed as decrease in serum triglyceride level at 13 mg/kg, po for 7 days and co-treated with Triton WR-1339 on day 6; format: functional, organism-based
[3] = test system: Mus musculus; experiment: Antihyperlipidemic activity in Triton WR-1339-induced hyperlipidemic mouse model assessed as decrease in serum MDA level at 13 mg/kg, po for 7 days and co-treated with Triton WR-1339 on day 6; format: functional, organism-based
[4] = test system: Mus musculus; experiment: Antihyperlipidemic activity in high fat diet-induced hyperlipidemic mouse model assessed as increase in HDL level at 13 mg/kg, po administered for last 30 days during 60 days of high fat diet feeding relative to control; format: functional
[5] = test system: Mus musculus; experiment: Antioxidant activity in high fat diet-induced hyperlipidemic mouse model assessed as increase in SOD level at 13 mg/kg, po administered for last 30 days during 60 days of high fat diet feeding relative to control; format: functional
[6] = test system: Mus musculus; experiment: Antioxidant activity in high fat diet-induced hyperlipidemic mouse model assessed as increase in GSH-PX level at 13 mg/kg, po administered for last 30 days during 60 days of high fat diet feeding relative to control; format: functional
[7] = test system: Mus musculus; experiment: Antihyperlipidemic activity in high fat diet-induced hyperlipidemic mouse model assessed as reduction in serum triglyceride level at 13 mg/kg, po administered for last 30 days during 60 days of high fat diet feeding relative to control; format: functional
[8] = test system: Mus musculus; experiment: Antihyperlipidemic activity in high fat diet-induced hyperlipidemic mouse model assessed as reduction in total cholesterol level at 13 mg/kg, po administered for last 30 days during 60 days of high fat diet feeding relative to control; format: functional
[9] = species: Mus musculus; experiment: animal or person; format: functional; settings: po
Description: Antihyperlipidemic activity in high fat diet-induced hyperlipidemic mouse model assessed as reduction in atherosclerosis index at 13 mg/kg, po administered for last 30 days during 60 days of high fat diet feeding relative to control

[10] = test system: Mus musculus; experiment: Antihyperlipidemic activity in high fat diet-induced hyperlipidemic mouse model assessed as LDL level at 13 mg/kg, po administered for last 30 days during 60 days of high fat diet feeding relative to control; format: functional
[11] = test system: Mus musculus; experiment: Antioxidant activity in high fat diet-induced hyperlipidemic mouse model assessed as reduction in MDA level at 13 mg/kg, po administered for last 30 days during 60 days of high fat diet feeding relative to control; format: functional
[12] = test system: Mus musculus; experiment: In vivo anti-inflammatory activity in high fat diet-induced hyperlipidemic mouse model assessed as reduction in TNF-alpha level at 13 mg/kg, po administered for last 30 days during 60 days of high fat diet feeding relative to control; format: functional
[13] = test system: Mus musculus; experiment: In vivo anti-inflammatory activity in high fat diet-induced hyperlipidemic mouse model assessed as reduction in IL-6 level at 13 mg/kg, po administered for last 30 days during 60 days of high fat diet feeding relative to control; format: functional
[14] = test system: Mus musculus; experiment: Hepatoprotective activity in high fat diet-induced hyperlipidemic mouse model assessed as reduction in AST level at 13 mg/kg, po administered for last 30 days during 60 days of high fat diet feeding relative to control; format: functional
[15] = test system: Mus musculus; experiment: Hepatoprotective activity in high fat diet-induced hyperlipidemic mouse model assessed as reduction in ALT level at 13 mg/kg, po administered for last 30 days during 60 days of high fat diet feeding relative to control; format: functional
[16] = test system: Mus musculus; experiment: Hepatoprotective activity in high fat diet-induced hyperlipidemic mouse model assessed as inhibition of lipid accumulation at 13 mg/kg, po administered for last 30 days during 60 days of high fat diet feeding by oil-red O staining-based microscopic analysis; format: functional, organism-based
[17] = test system: Mus musculus; experiment: Hepatoprotective activity in high fat diet-induced hyperlipidemic mouse model assessed as decrease in tissue hemorrhage at 13 mg/kg, po administered for last 30 days during 60 days of high fat diet feeding by H and E staining-based microscopic analysis; format: functional, organism-based
[18] = test system: Mus musculus; experiment: Hepatoprotective activity in high fat diet-induced hyperlipidemic mouse model assessed as decrease in inflammatory cell infiltration at 13 mg/kg, po administered for last 30 days during 60 days of high fat diet feeding by H and E staining-based microscopic analysis; format: functional, organism-based

Compound	Activity [1]	Activity [2]	Activity [3]	also measured
CCOC(=O)CCCCCCOc1ccc(-c2cc(=S)ss2)cc1	Active	Active	Active	
COc1ccc(-c2cc(=S)ss2)cc1	inactive	inactive		
CCOC(=O)C(C)Oc1ccc(-c2cc(=S)ss2)cc1 (stereo not given)		Active	Active	
CCOC(=O)C(CC)Oc1ccc(-c2cc(=S)ss2)cc1 (stereo not given)		Active	Active	
CCOC(=O)C(C)(C)Oc1ccc(-c2cc(=S)ss2)cc1		Active	Active	
CCOC(=O)CCCCOc1ccc(-c2cc(=S)ss2)cc1	Active	Active	Active	
CC(C)OC(=O)C(C)(C)Oc1ccc(C(=O)c2ccc(Cl)cc2)cc1 [FENOFIBRATE]	inactive	Active	Active	Activity [4]: 19.4%; Activity [5]: 10.9%; Activity [6]: 9.9%
CCOC(=O)COc1ccc(-c2cc(=S)ss2)cc1		Active	Active	
CCOC(=O)CCCCCOc1ccc(-c2cc(=S)ss2)cc1	Active	Active	Active	inhibition in vivo at 13 mg/kg [7]: 29.4%; inhibition in vivo at 13 mg/kg [8]: 12.5%; inhibition in vivo at 13 mg/kg [9]: 40.1%; inhibition in vivo at 13 mg/kg [10]: 30.7%; Activity [4]: 21.4%; Activity [5]: 10.8%; inhibition in vivo at 13 mg/kg [11]: 10.1%; Activity [6]: 19.2%; inhibition in vivo at 13 mg/kg [12]: 31.8%; inhibition in vivo at 13 mg/kg [13]: 18.4%; inhibition in vivo at 13 mg/kg [14]: 31.5 to 39%; inhibition in vivo at 13 mg/kg [15]: 8.2%; Activity [16]: Active; Activity [17]: Active; Activity [18]: Active
